In patent US8030336B2, “Nicotinamide-based kinase inhibitors” (YM Biosciences Australia Pty Ltd, priority 2002, dated 2011) one finds inhibition data, which are given here for 22 molecules.

Holding throughout (assay type): biochemical
One experiment has as its target T1, fms (Homo sapiens, UniProt P07333).
T1 sequence (P07333 582-910 limits assumed): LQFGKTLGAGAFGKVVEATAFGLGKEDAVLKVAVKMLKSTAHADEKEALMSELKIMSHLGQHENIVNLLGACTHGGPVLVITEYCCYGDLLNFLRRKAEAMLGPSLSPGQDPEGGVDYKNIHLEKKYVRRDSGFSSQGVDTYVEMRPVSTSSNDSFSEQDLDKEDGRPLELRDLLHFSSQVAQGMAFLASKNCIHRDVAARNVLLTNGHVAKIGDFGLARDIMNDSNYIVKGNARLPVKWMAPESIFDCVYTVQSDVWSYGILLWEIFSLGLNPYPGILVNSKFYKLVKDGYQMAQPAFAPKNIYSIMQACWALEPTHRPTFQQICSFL
As to the kind of experiment: fms kinase assay (ELISA or Alphascreen). The settings on record: read-out: fms inhibition of enzyme activity. The gist of the method:
(§1)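 Affinity-purified PTK domain (~1.5 μg) phosphorylated biotinylated peptide (5 μM final) in 50 mM HEPES pH 7.5, 10 mM MgCl2, 150 mM NaCl, 10 μM-1 mM ATP. Phosphotyrosine read by PY20 ELISA or Alphascreen.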

Another experiment concerns the target T2, Zap70 (Homo sapiens, UniProt P43403).
T2 sequence (P43403 338-600 limits assumed): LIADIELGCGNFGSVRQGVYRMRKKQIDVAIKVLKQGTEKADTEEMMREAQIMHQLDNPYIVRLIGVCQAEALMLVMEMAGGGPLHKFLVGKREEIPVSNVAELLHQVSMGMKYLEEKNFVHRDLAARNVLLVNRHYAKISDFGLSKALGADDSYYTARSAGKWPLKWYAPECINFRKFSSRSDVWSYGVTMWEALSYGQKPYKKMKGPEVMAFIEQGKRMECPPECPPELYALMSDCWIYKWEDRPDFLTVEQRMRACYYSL
The experiment can be described thus: Zap70 kinase assay (ELISA or Alphascreen). The settings on record: read-out: Zap70 inhibition of enzyme activity. The gist of the method: as §1

A further experiment has as its target T3, human JAK3 (Homo sapiens, UniProt P52333).
T3 construct: The kinase domain of human JAK3 was amplified from U937mRNA; His tag (from the pFastBac HTb vector) (N); made in house; host or cells: baculovirus; Sf9 for virus, High Five insect cells for production
As to the kind of experiment: JAK3 kinase assay (ELISA or Alphascreen). The conditions noted are these: read-out: Jak3 inhibition of enzyme activity. The gist of the method:
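His-tagged human JAK3 kinase domain from High Five cells, ~1.5 μg per assay, in 50 mM HEPES pH 7.5, 10 mM MgCl2, 150 mM NaCl, 10 μM-1 mM ATP, 5 μM biotinylated peptide substrate. Phosphotyrosine by PY20 ELISA or Alphascreen.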

A further experiment addresses hck (Homo sapiens, UniProt P08631). The experiment can be described thus: hck kinase assay (ELISA or Alphascreen). The conditions noted are these: read-out: hck inhibition of enzyme activity. The gist of the method:
as §1

Another experiment has as its target T4, human JAK2 (Homo sapiens, UniProt O60674).
T4 construct: The kinase domain of human JAK2 was amplified from U937mRNA; His tag (from the pFastBac HTc vector) (N); made in house; host or cells: baculovirus; Sf9 for virus, High Five insect cells for production
As to the kind of experiment: JAK2 kinase assay (ELISA or Alphascreen). The conditions noted are these: read-out: Jak2 inhibition of enzyme activity. The gist of the method: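 His-tagged human JAK2 kinase domain from baculovirus-infected insect cells, ~1.5 μg per assay, in 50 mM HEPES pH 7.5, 10 mM MgCl2, 150 mM NaCl, with 10 μM–1 mM ATP and 5 μM biotinylated peptide substrate. Phosphotyrosine detected by PY20 ELISA or AlphaScreen.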

For another experiment, the target named is T5, abl (Homo sapiens, UniProt P00519).
T5 sequence (P00519 242-493 limits assumed): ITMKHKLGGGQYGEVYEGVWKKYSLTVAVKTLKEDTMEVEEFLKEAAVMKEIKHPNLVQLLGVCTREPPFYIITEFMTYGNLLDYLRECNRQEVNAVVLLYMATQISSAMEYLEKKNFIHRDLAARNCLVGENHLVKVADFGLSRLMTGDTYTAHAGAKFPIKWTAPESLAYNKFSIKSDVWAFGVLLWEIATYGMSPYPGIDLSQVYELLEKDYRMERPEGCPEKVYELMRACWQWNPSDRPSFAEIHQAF
The experiment can be described thus: abl kinase assay (ELISA or Alphascreen). The settings on record: read-out: abl inhibition of enzyme activity. The method, boiled down:
as §1

The next experiment concerns the target fes (Homo sapiens, UniProt P07332). The experiment can be described thus: fes kinase assay (ELISA or Alphascreen). The settings on record: read-out: fes inhibition of enzyme activity. The method, boiled down: as §1

T4 sequence (O60674 849-1124 limits assumed): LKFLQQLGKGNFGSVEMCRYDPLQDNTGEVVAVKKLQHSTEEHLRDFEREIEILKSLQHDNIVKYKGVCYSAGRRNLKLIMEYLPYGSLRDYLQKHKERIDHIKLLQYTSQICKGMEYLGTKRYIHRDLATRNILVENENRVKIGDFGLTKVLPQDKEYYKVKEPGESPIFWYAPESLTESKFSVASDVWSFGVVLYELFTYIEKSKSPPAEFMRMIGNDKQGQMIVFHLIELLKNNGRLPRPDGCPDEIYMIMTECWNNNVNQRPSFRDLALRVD
Chain of fes (P07332 561-822 limits assumed, species assumed): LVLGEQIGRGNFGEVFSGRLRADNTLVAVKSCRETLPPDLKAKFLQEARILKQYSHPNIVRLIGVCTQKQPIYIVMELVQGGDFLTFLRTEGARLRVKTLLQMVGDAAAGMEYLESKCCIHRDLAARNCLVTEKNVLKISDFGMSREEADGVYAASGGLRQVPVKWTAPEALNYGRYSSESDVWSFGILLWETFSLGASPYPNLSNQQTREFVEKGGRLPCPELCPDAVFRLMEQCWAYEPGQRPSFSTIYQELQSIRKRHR
T3 sequence (P52333 822-1111 limits assumed): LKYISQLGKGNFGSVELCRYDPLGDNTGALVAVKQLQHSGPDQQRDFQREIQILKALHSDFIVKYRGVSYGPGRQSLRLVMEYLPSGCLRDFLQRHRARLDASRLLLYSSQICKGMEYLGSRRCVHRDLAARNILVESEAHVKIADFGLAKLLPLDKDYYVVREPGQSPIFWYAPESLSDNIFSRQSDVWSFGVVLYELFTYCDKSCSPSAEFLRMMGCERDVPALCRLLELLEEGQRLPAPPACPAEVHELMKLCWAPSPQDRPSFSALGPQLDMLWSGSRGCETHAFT
Chain of hck (P08631 262-515 limits assumed, species assumed): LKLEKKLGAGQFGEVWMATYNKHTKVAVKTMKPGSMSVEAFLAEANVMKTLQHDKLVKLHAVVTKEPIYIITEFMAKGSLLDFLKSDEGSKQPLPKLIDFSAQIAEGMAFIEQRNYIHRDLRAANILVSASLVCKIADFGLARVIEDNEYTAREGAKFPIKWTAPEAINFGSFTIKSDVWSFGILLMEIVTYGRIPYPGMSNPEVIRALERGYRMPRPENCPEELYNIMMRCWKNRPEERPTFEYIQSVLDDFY

`O=C(Nc1ccccc1)c1cncc(-c2ccc(O)cc2)c1`: the inhibition at 10 µM at fms, at Zap70, on human JAK3, at hck, on human JAK2 and at abl was under 50% throughout.
In the case of `CC(C)NC(=O)c1cncc(-c2ccc(O)cc2)c1`, the inhibition at 10 µM on fms was under 50%; on Zap70 it was under 50%; on hck, at least 50%; on fes, under 50%; on human JAK2, under 50%; at abl, under 50%.
Turning to `Cc1ccc(C)c(NC(=O)c2cncc(-c3ccc(O)cc3)c2)c1`, the inhibition at 10 µM on fms was under 50%; on Zap70, under 50%; at human JAK3, under 50%; on hck, at least 50%; on human JAK2, under 50%; at abl, under 50%.
`Cc1cc(-c2cncc(C(=O)Nc3ccccc3)c2)cc(C)c1O`: the inhibition at 10 µM was under 50% at fms; under 50% on Zap70; under 50% at human JAK3; at least 50% at hck; under 50% at human JAK2; under 50% on abl.
Turning to `Cc1ccccc1NC(=O)c1cncc(-c2cc(C)c(O)c(C)c2)c1`, the inhibition at 10 µM at fms is at least 50%; at Zap70, under 50%; on human JAK3, under 50%; on hck it was at least 50%; on human JAK2, under 50%; at abl, at least 50%.
Regarding `COc1cc(-c2cncc(C(=O)NCc3ccncc3)c2)c(Cl)c(OC)c1OC`, the inhibition at 10 µM on fms, at Zap70, at hck, at fes, on human JAK2 and on abl was under 50% each time.
For the molecule `COc1cc(-c2cncc(C(=O)NC(C)CCc3ccccc3)c2)c(Cl)c(OC)c1OC` (stereo not drawn), the inhibition at 10 µM on fms, on Zap70, at human JAK3, at hck, on human JAK2 and at abl was under 50% each time.
With `O=C(NCc1ccc(N2CCOCC2)cc1)c1cncc(-c2ccc3c(c2)OCO3)c1`, the inhibition at 10 µM on fms, at human JAK3, on hck, at fes, at human JAK2 and on abl was under 50% in each case.
As for `Cc1cc(F)ccc1NC(=O)c1cncc(-c2ccc3c(c2)OCO3)c1`, the inhibition at 10 µM at fms, on Zap70, on human JAK3, at hck, at human JAK2 and at abl was under 50% throughout.
Take `O=C(NCc1cccc(F)c1)c1cncc(-c2cccs2)c1`: the inhibition at 10 µM is under 50% on fms; under 50% at human JAK3; under 50% at hck; at least 50% at fes; under 50% at human JAK2; under 50% on abl.
As for `C[C@@H](NC(=O)c1cncc(-c2cccnc2)c1)c1ccccc1`, the inhibition at 10 µM on fms, at human JAK3, at hck, at fes, on human JAK2 and at abl was under 50% throughout.
On to `C[C@H](NC(=O)c1cncc(-c2ccc(F)cc2)c1)c1ccccc1`, for which the inhibition at 10 µM on fms, on Zap70, on human JAK3, on hck, at human JAK2 and at abl was under 50% throughout.
As to `O=C(NCc1ccc(Cl)c(Cl)c1)c1cncc(-c2ccc(F)cc2)c1`, the inhibition at 10 µM at fms, at human JAK3, at hck, at fes, on human JAK2 and at abl was under 50% in each case.
On to `O=C(Nc1ccccc1)c1cncc(-c2ccc(F)cc2)c1`, for which the inhibition at 10 µM at fms, at human JAK3, at hck, at fes, at human JAK2 and at abl was under 50% throughout.
With `O=C(NCc1ccco1)c1cncc(-c2ccc(F)cc2)c1`, the inhibition at 10 µM at fms was under 50%; at Zap70 it was under 50%; at human JAK3, at least 50%; on hck, under 50%; at human JAK2 it was under 50%; on abl it was under 50%.
With `COc1cc(NC(=O)c2cncc(-c3ccc(F)cc3)c2)cc(OC)c1OC`, the inhibition at 10 µM on fms, at Zap70, at human JAK3, on hck, at human JAK2 and on abl was under 50% throughout.
For the molecule `COc1cccc(-c2cncc(C(=O)Nc3ccccc3)c2)c1`, the inhibition at 10 µM on fms, at human JAK3, at hck, on fes, at human JAK2 and at abl was under 50% throughout.
As for `COc1cccc(-c2cncc(C(=O)Nc3ccc(F)cc3C)c2)c1`, the inhibition at 10 µM was under 50% at fms; under 50% on human JAK3; at least 50% on hck; under 50% at fes; under 50% at human JAK2; under 50% at abl.
Take `COc1cccc(-c2cncc(C(=O)NC(C)CCc3ccccc3)c2)c1` (stereo not drawn): the inhibition at 10 µM at fms, at Zap70, at hck, on fes, on human JAK2 and at abl was under 50% throughout.
Take `COc1cccc(-c2cncc(C(=O)Nc3ccc(OC)cc3OC)c2)c1`: the inhibition at 10 µM on fms, on human JAK3, at hck, on fes, at human JAK2 and on abl was under 50% throughout.
Regarding `COc1cc(-c2cncc(C(=O)Nc3cc(C)ccc3C)c2)ccc1O`, the inhibition at 10 µM on fms is at least 50%; at Zap70, under 50%; at human JAK3, under 50%; at hck, at least 50%; at human JAK2, under 50%; on abl it was at least 50%.
Turning to `C[C@@H](NC(=O)c1cncc(-c2ccncc2)c1)c1ccccc1`, the inhibition at 10 µM was under 50% on fms; at least 50% on Zap70; under 50% at human JAK3; under 50% on hck; under 50% at human JAK2; under 50% on abl.
